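Cultured in 96-well plates, cells were exposed to test compound for 48 hours across five concentrations. TGI: concentration producing complete growth inhibition.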
Key:
Assay in all cases: NCI anticancer screen, dose series, 48 h
HS 578T breast = test system: HS 578T breast
TK-10 renal = test system: TK-10 renal
HCT-116 colon = test system: HCT-116 colon
HL-60(TB) leukemia = test system: HL-60(TB) leukemia
BT-549 breast = test system: BT-549 breast
RXF 393 renal = test system: RXF 393 renal
CAKI-1 renal = test system: CAKI-1 renal
UACC-257 melanoma = test system: UACC-257 melanoma
SN12C renal = test system: SN12C renal
ACHN renal = test system: ACHN renal
HCC-2998 colon = test system: HCC-2998 colon
SR leukemia = test system: SR leukemia
SK-OV-3 ovarian = test system: SK-OV-3 ovarian
HOP-62 NSCLC = test system: HOP-62 NSCLC
SNB-75 CNS = test system: SNB-75 CNS
T-47D breast = test system: T-47D breast
SF-268 CNS = test system: SF-268 CNS
OVCAR-3 ovarian = test system: OVCAR-3 ovarian
HCT-15 colon = test system: HCT-15 colon
SW-620 colon = test system: SW-620 colon
U251 CNS = test system: U251 CNS
MOLT-4 leukemia = test system: MOLT-4 leukemia
SK-MEL-28 melanoma = test system: SK-MEL-28 melanoma
NCI-H460 lung = test system: NCI-H460 lung
UACC-62 melanoma = test system: UACC-62 melanoma
UO-31 renal = test system: UO-31 renal
786-0 renal = test system: 786-0 renal
DU-145 prostate = test system: DU-145 prostate
NCI/ADR-RES ovarian = test system: NCI/ADR-RES ovarian
NCI-H23 lung = test system: NCI-H23 lung
SNB-19 CNS = test system: SNB-19 CNS
KM12 colon = test system: KM12 colon
SK-MEL-2 melanoma = test system: SK-MEL-2 melanoma
SK-MEL-5 melanoma = test system: SK-MEL-5 melanoma
COLO 205 colon = test system: COLO 205 colon
PC-3 prostate = test system: PC-3 prostate
NCI-H226 lung = test system: NCI-H226 lung
SF-295 CNS = test system: SF-295 CNS
A549 NSCLC = test system: A549 NSCLC
MDA-MB-231 breast = test system: MDA-MB-231 breast
A498 renal = test system: A498 renal
CCRF-CEM leukemia = test system: CCRF-CEM leukemia
OVCAR-8 ovarian = test system: OVCAR-8 ovarian
M14 melanoma = test system: M14 melanoma
K-562 leukemia = test system: K-562 leukemia
MDA-N = test system: MDA-N
OVCAR-4 ovarian = test system: OVCAR-4 ovarian
MALME-3M melanoma = test system: MALME-3M melanoma
NCI-H522 lung = test system: NCI-H522 lung
SF-539 CNS = test system: SF-539 CNS
MCF7 breast = test system: MCF7 breast
HT29 colon = test system: HT29 colon
EKVX NSCLC = test system: EKVX NSCLC
OVCAR-5 ovarian = test system: OVCAR-5 ovarian
IGROV1 ovarian = test system: IGROV1 ovarian
LOX IMVI melanoma = test system: LOX IMVI melanoma
RPMI-8226 leukemia = test system: RPMI-8226 leukemia
HOP-92 NSCLC = test system: HOP-92 NSCLC

With `Cc1cc(C#N)c[n+](C)c1` the TGI (HS 578T breast) was over 100 µM, the TGI (TK-10 renal) was over 100 µM and the TGI (HCT-116 colon) was over 100 µM. The TGI (HL-60(TB) leukemia) was over 100 µM, the TGI (BT-549 breast) was over 100 µM and the TGI (RXF 393 renal) was over 100 µM. For the same molecule, the TGI (CAKI-1 renal) was over 100 µM, the TGI (UACC-257 melanoma) was over 100 µM and the TGI (SN12C renal) was over 100 µM. It also gave a TGI (ACHN renal) of over 100 µM, a TGI (HCC-2998 colon) of over 100 µM and a TGI (SR leukemia) of over 100 µM. The TGI (SK-OV-3 ovarian) was over 100 µM, the TGI (HOP-62 NSCLC) was over 100 µM and the TGI (SNB-75 CNS) was over 100 µM. The TGI (T-47D breast) was over 100 µM, the TGI (SF-268 CNS) was over 100 µM and the TGI (OVCAR-3 ovarian) was over 100 µM. It also gave a TGI (HCT-15 colon) of over 100 µM, a TGI (SW-620 colon) of over 100 µM and a TGI (U251 CNS) of over 100 µM. For the same molecule, the TGI (MOLT-4 leukemia) was over 100 µM, the TGI (SK-MEL-28 melanoma) was over 100 µM and the TGI (NCI-H460 lung) was over 100 µM. It also gave a TGI (UACC-62 melanoma) of over 100 µM, a TGI (UO-31 renal) of over 100 µM and a TGI (786-0 renal) of over 100 µM. It also gave a TGI (DU-145 prostate) of over 100 µM, a TGI (NCI/ADR-RES ovarian) of over 100 µM and a TGI (NCI-H23 lung) of over 100 µM. The TGI (SNB-19 CNS) was over 100 µM, the TGI (KM12 colon) was over 100 µM and the TGI (SK-MEL-2 melanoma) was over 100 µM. For the same molecule, the TGI (SK-MEL-5 melanoma) was over 100 µM, the TGI (COLO 205 colon) was over 100 µM and the TGI (PC-3 prostate) was over 100 µM. It also gave a TGI (NCI-H226 lung) of over 100 µM, a TGI (SF-295 CNS) of over 100 µM and a TGI (A549 NSCLC) of over 100 µM. The TGI (MDA-MB-231 breast) was over 100 µM, the TGI (A498 renal) was over 100 µM and the TGI (CCRF-CEM leukemia) was over 100 µM. For the same molecule, the TGI (OVCAR-8 ovarian) was over 100 µM, the TGI (M14 melanoma) was over 100 µM and the TGI (K-562 leukemia) was over 100 µM. For the same molecule, the TGI (MDA-N) was over 100 µM, the TGI (OVCAR-4 ovarian) was over 100 µM and the TGI (MALME-3M melanoma) was over 100 µM. For the same molecule, the TGI (NCI-H522 lung) was over 100 µM, the TGI (SF-539 CNS) was over 100 µM and the TGI (MCF7 breast) was over 100 µM. It also gave a TGI (HT29 colon) of over 100 µM, a TGI (EKVX NSCLC) of over 100 µM and a TGI (OVCAR-5 ovarian) of over 100 µM. The TGI (IGROV1 ovarian) was over 100 µM.
`Cc1c(S(=O)(=O)/N=C(\NN)Nc2ccc(Cl)cc2)sc2ccc(Cl)cc12` gave a TGI (HS 578T breast) of 59.1 µM, a TGI (TK-10 renal) of 31.8 µM and a TGI (HCT-116 colon) of 26.4 µM. It also gave a TGI (HL-60(TB) leukemia) of 90.8 µM, a TGI (BT-549 breast) of 30.9 µM and a TGI (RXF 393 renal) of 23.6 µM. For the same molecule, the TGI (CAKI-1 renal) was 34.4 µM, the TGI (UACC-257 melanoma) was 33.8 µM and the TGI (SN12C renal) was 30.9 µM. The TGI (ACHN renal) was 30 µM, the TGI (LOX IMVI melanoma) was 35.1 µM and the TGI (SR leukemia) was 65.1 µM. It also gave a TGI (SK-OV-3 ovarian) of 35.9 µM, a TGI (HOP-62 NSCLC) of 36.3 µM and a TGI (SNB-75 CNS) of 28.4 µM. The TGI (RPMI-8226 leukemia) was over 100 µM, the TGI (T-47D breast) was 24 µM and the TGI (SF-268 CNS) was 33.8 µM. For the same molecule, the TGI (OVCAR-3 ovarian) was 32 µM, the TGI (HCT-15 colon) was 34.4 µM and the TGI (SW-620 colon) was 71.2 µM. For the same molecule, the TGI (HOP-92 NSCLC) was 31.4 µM, the TGI (U251 CNS) was 30.4 µM and the TGI (MOLT-4 leukemia) was 59.8 µM. It also gave a TGI (SK-MEL-28 melanoma) of 44.1 µM, a TGI (NCI-H460 lung) of 34.8 µM and a TGI (UACC-62 melanoma) of 27.6 µM. The TGI (UO-31 renal) was 33.1 µM, the TGI (786-0 renal) was 31.5 µM and the TGI (DU-145 prostate) was 30.9 µM. The TGI (NCI/ADR-RES ovarian) was 40.8 µM, the TGI (NCI-H23 lung) was 35.6 µM and the TGI (SNB-19 CNS) was 38 µM. The TGI (KM12 colon) was 30 µM, the TGI (SK-MEL-2 melanoma) was 30.5 µM and the TGI (SK-MEL-5 melanoma) was 33.4 µM. The TGI (COLO 205 colon) was 33.4 µM, the TGI (PC-3 prostate) was 29 µM and the TGI (NCI-H226 lung) was 41.6 µM. It also gave a TGI (SF-295 CNS) of 33.6 µM, a TGI (A549 NSCLC) of 31.6 µM and a TGI (MDA-MB-231 breast) of 32 µM. It also gave a TGI (A498 renal) of 29.5 µM, a TGI (CCRF-CEM leukemia) of over 100 µM and a TGI (OVCAR-8 ovarian) of 34.7 µM. It also gave a TGI (M14 melanoma) of 34.8 µM, a TGI (K-562 leukemia) of over 100 µM and a TGI (MDA-N) of 29.1 µM. The TGI (OVCAR-4 ovarian) was 30.1 µM, the TGI (MALME-3M melanoma) was 39.1 µM and the TGI (NCI-H522 lung) was 32.5 µM. For the same molecule, the TGI (SF-539 CNS) was 31.5 µM, the TGI (MCF7 breast) was 30.2 µM and the TGI (HT29 colon) was 30.7 µM. The TGI (EKVX NSCLC) was 27.2 µM, the TGI (OVCAR-5 ovarian) was 27.9 µM and the TGI (IGROV1 ovarian) was 30.4 µM.
In the case of `CC(C)/C(Cl)=N\OC(=O)Nc1ccc(F)cc1`, the TGI (HS 578T breast) is reported as 71.9 µM, the TGI (TK-10 renal) is reported as 9.06 µM and the TGI (HCT-116 colon) is reported as 22.6 µM. It also gave a TGI (HL-60(TB) leukemia) of 3.72 µM, a TGI (BT-549 breast) of 24.2 µM and a TGI (RXF 393 renal) of 29.9 µM. It also gave a TGI (UACC-257 melanoma) of 28.3 µM, a TGI (SN12C renal) of 16.7 µM and a TGI (ACHN renal) of 7.7 µM. For the same molecule, the TGI (LOX IMVI melanoma) was 5.73 µM, the TGI (HCC-2998 colon) was 32 µM and the TGI (SR leukemia) was 4.33 µM. For the same molecule, the TGI (SK-OV-3 ovarian) was 31.7 µM, the TGI (HOP-62 NSCLC) was 33.4 µM and the TGI (RPMI-8226 leukemia) was 4.19 µM. The TGI (T-47D breast) was 24.1 µM, the TGI (SF-268 CNS) was 56.1 µM and the TGI (OVCAR-3 ovarian) was 21.6 µM. For the same molecule, the TGI (HCT-15 colon) was 12.9 µM, the TGI (SW-620 colon) was 3.23 µM and the TGI (U251 CNS) was 29 µM. For the same molecule, the TGI (MOLT-4 leukemia) was 4.2 µM, the TGI (SK-MEL-28 melanoma) was 11.5 µM and the TGI (NCI-H460 lung) was 36.1 µM. For the same molecule, the TGI (UACC-62 melanoma) was 40 µM, the TGI (UO-31 renal) was 10.5 µM and the TGI (786-0 renal) was 9.55 µM. For the same molecule, the TGI (DU-145 prostate) was 30.7 µM, the TGI (NCI/ADR-RES ovarian) was over 48.5 µM and the TGI (NCI-H23 lung) was 38.4 µM. For the same molecule, the TGI (SNB-19 CNS) was 39.3 µM, the TGI (KM12 colon) was 35.7 µM and the TGI (SK-MEL-2 melanoma) was 32.8 µM. For the same molecule, the TGI (SK-MEL-5 melanoma) was 26.4 µM, the TGI (COLO 205 colon) was 4.42 µM and the TGI (PC-3 prostate) was 31.4 µM. It also gave a TGI (NCI-H226 lung) of 36.9 µM, a TGI (SF-295 CNS) of 27.8 µM and a TGI (A549 NSCLC) of 35.9 µM. For the same molecule, the TGI (MDA-MB-231 breast) was 5.17 µM, the TGI (A498 renal) was 28.5 µM and the TGI (CCRF-CEM leukemia) was 3.62 µM. For the same molecule, the TGI (OVCAR-8 ovarian) was 25.6 µM, the TGI (M14 melanoma) was 16.1 µM and the TGI (K-562 leukemia) was 3.45 µM. For the same molecule, the TGI (MDA-N) was 23.2 µM, the TGI (MALME-3M melanoma) was 3.91 µM and the TGI (NCI-H522 lung) was 3.02 µM. The TGI (SF-539 CNS) was 32.8 µM, the TGI (MCF7 breast) was 14.3 µM and the TGI (HT29 colon) was 4.6 µM. It also gave a TGI (EKVX NSCLC) of 11.3 µM, a TGI (OVCAR-5 ovarian) of 30.4 µM and a TGI (IGROV1 ovarian) of 31.7 µM.

Source: PubChem BioAssay (NCI)
